Test system: wrinkling on face
Test: Gel composition applied to wrinkled face twice daily (Example 1)
Type: in vivo, human
Conditions: person
Source text: A person is suffering from wrinkling on their face. A gel composition suitable for treatment of skin containing an effective amount of copper-zinc malonate active ingredient is routinely applied to their face twice daily.

In the case of copper-zinc malonate, the wrinkling on face is reported as “reduced or eliminated”.

Source: patent publication US20070184017A1, “Anti-aging treatment using copper and zinc compositions” (priority 2006, published 2007)
